From patent publication US12545659B2, “IRAK degraders and uses thereof” (Kymera Therapeutics, Inc., priority 2019, dated 2026)

These molecules were tested against T1, IRAK4 (Homo sapiens, UniProt Q9NWZ3) (assay: IRAK4 MSD Degradation in OCI-LY10). Settings: OCI-LY10 cells, 4 hrs incubation, read-out: IRAK4 degradation in OCI-LY10 at 4 hrs: DC50.
T1 construct: endogenous in cells; host or cells: OCI-LY10
T1 sequence (Q9NWZ3 1-460): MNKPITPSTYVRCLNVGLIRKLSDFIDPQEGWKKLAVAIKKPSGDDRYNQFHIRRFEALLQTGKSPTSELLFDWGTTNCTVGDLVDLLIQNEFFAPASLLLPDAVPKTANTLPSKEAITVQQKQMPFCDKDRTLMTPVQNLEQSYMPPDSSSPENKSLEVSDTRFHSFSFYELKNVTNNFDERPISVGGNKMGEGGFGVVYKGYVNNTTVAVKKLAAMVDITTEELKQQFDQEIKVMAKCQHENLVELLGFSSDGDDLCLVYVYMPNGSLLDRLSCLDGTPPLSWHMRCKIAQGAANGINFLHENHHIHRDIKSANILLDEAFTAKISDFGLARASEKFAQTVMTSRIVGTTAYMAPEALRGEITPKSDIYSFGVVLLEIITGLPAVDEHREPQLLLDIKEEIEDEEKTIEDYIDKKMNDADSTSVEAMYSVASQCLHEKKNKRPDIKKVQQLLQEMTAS
Assay type: cell-based
Procedure: Degradation of IRAK4 in OCI-LY10 was quantitatively measured using Meso Scale Discovery technology. […] Compounds were then added to the assay plates with a final top concentration of 1 to 10 μM in a 1:3 dilution series with total of 8 doses. The assay plates were then incubated for 4 to 24 hours at 37° C. under 5% C02. […] To prepare MSD assay plates (Meso Scale Discovery Catalog number L15XA-3), the plates were coated with […] capture antibody (mouse Anti-IRAK4 antibody [2H9], ab119942) in PBS, at 40 μL/well. […] Cell lysates were then added to MSD assay plates and the plates were incubated at room temperature for 1 hour. The plates were then washed 3 times with 150 μL/well TBST buffer and 25 μL/well primary detection antibody (rabbit Anti-IRAK4 antibody [Y279], from Abcam. Catalog number ab32511, 1 μg/mL). The assay plates were then incubated at room temperature for 1 hour, washed 3 times with 150 μL/well TBST buffer and 25 μL/well secondary detection antibody, SULFO-TAG anti-rabbit antibody were added (anti rabbit antibody from Meso Scale Discovery, Catalog number R32AB-1, 1 μg/mL). The assay plates were then incubated at room temperature for 1 hour, washed 3 times with 150 μL/well TBST buffer, and 150 μL/well MSD reading buffer (Meso Scale Discovery catalog number R92TC-2) was added. The plates were then analyzed by a MSD reader (Meso Scale Discovery, Model Quick Plex SQ 120). The data was then analyzed by software Prism 7.0 from GraphPad and the dose-depended IRAK4 degradation were fit using a three-parameter logistic equation to calculate DC50.
The letter codes for IRAK4 […] include: A (<0.05 μM); B (0.05-0.1 μM); C (0.1-0.5 μM); D (0.5-1.0 μM); and E (>1.0 μM).

DC50 | SMILES
< 50 nM | Cn1c(=O)n(C2CCC(=O)NC2=O)c2cccc(CCC3CCN(C[C@H]4CC[C@H](n5cc6cc(NC(=O)c7cccc(C(F)(F)F)n7)c(C(F)F)cc6n5)CC4)CC3)c21 (some centres unmarked) [I-94]
50 to 100 nM | Cn1c(=O)n(C2CCC(=O)NC2=O)c2cccc(C#CCC3CCN(C[C@H]4CC[C@H](n5cc6cc(NC(=O)c7cccc(C(F)(F)F)n7)c(C(F)F)cc6n5)CC4)CC3)c21 (some centres unmarked) [I-95]
< 50 nM | COc1cc2nn([C@H]3CC[C@H](CN4CCN(CCc5cccc6c5n(C)c(=O)n6C5CCC(=O)NC5=O)CC4)CC3)cc2cc1NC(=O)c1cccc(C(F)(F)F)n1 (some centres unmarked) [I-96]
< 50 nM | Cn1c(=O)n(C2CCC(=O)NC2=O)c2cccc(CCN3C[C@H]4CC[C@@H](C3)N4CC[C@H]3CC[C@H](n4cc5cc(NC(=O)c6cccc(C(F)(F)F)n6)c(C(C)(C)O)cc5n4)CC3)c21 (some centres unmarked) [I-97]
< 50 nM | COc1cc2nn([C@H]3CC[C@H](CN4CC(c5ccc6c(c5)n(C)c(=O)n6C5CCC(=O)NC5=O)C4)CC3)cc2cc1NC(=O)c1cccc(C(C)(C)F)n1 (some centres unmarked) [I-98]
50 to 100 nM | Cn1c(=O)n(C2CCC(=O)NC2=O)c2ccc(C3CN(C[C@H]4CC[C@H](n5cc6cc(NC(=O)c7cccc(C(C)(C)F)n7)c(C(F)F)cc6n5)CC4)C3)cc21 (some centres unmarked) [I-99]
< 50 nM | COc1cc2nn([C@H]3CC[C@H](CN4CCC(c5ccc6c(c5)n(C)c(=O)n6C5CCC(=O)NC5=O)CC4)CC3)cc2cc1NC(=O)c1cccc(C(C)(C)F)n1 (some centres unmarked) [I-100]
< 50 nM | Cn1c(=O)n(C2CCC(=O)NC2=O)c2ccc(C3CCN(C[C@H]4CC[C@H](n5cc6cc(NC(=O)c7cccc(C(C)(C)F)n7)c(C(F)F)cc6n5)CC4)CC3)cc21 (some centres unmarked) [I-101]
< 50 nM | COc1cc2nn([C@H]3CC[C@H](CN4CCN(c5ccc6c(c5)n(C)c(=O)n6C5CCC(=O)NC5=O)CC4)CC3)cc2cc1NC(=O)c1cccc(C(F)(F)F)n1 (some centres unmarked) [I-102]
50 to 100 nM | Cn1c(=O)n(C2CCC(=O)NC2=O)c2cccc(C3CCN(C[C@H]4CC[C@H](n5cc6cc(NC(=O)c7cccc(C(C)(C)F)n7)c(C(F)F)cc6n5)CC4)CC3)c21 (some centres unmarked) [I-103]
50 to 100 nM | Cn1c(=O)n(C2CCC(=O)NC2=O)c2cccc(C3CN(C[C@H]4CC[C@H](n5cc6cc(NC(=O)c7cccc(C(F)(F)F)n7)c(C(F)F)cc6n5)CC4)C3)c21 (some centres unmarked) [I-104]
< 50 nM | Cn1c(=O)n(C2CCC(=O)NC2=O)c2cccc(CCC3CC4(CCN(C[C@H]5CC[C@H](n6cc7cc(NC(=O)c8cnn9cccnc89)c(C(C)(C)O)cc7n6)CC5)CC4)C3)c21 (some centres unmarked) [I-105]
< 50 nM | CN(C[C@H]1CC[C@H](n2cc3cc(NC(=O)c4cccc(C(F)(F)F)n4)c(C(F)F)cc3n2)CC1)C1CCN(c2ccc3c(c2)n(C)c(=O)n3C2CCC(=O)NC2=O)CC1 (some centres unmarked) [I-106]
< 50 nM | COc1cc2nn([C@H]3CC[C@H](CN(C)C4CCN(c5ccc6c(c5)n(C)c(=O)n6C5CCC(=O)NC5=O)CC4)CC3)cc2cc1NC(=O)c1cccc(C(F)(F)F)n1 (some centres unmarked) [I-107]
50 to 100 nM | Cn1c(=O)n(C2CCC(=O)NC2=O)c2cccc(CCC3CC4(CCN(C[C@H]5CC[C@H](n6cc7cc(NC(=O)c8cccc(OC(F)(F)F)n8)c(C(C)(C)O)cc7n6)CC5)CC4)C3)c21 (some centres unmarked) [I-108]
50 to 100 nM | COc1cc2nn([C@H]3CC[C@H](CN4CCC5(CC4)CC(Cc4cccc6c4n(C)c(=O)n6C4CCC(=O)NC4=O)C5)CC3)cc2cc1NC(=O)c1cccc(C(F)(F)F)n1 (some centres unmarked) [I-109]
< 50 nM | COc1cc2nn([C@H]3CC[C@H](CN4CCC(c5cccc6c5n(C)c(=O)n6C5CCC(=O)NC5=O)CC4)CC3)cc2cc1NC(=O)c1cccc(C(F)(F)F)n1 (some centres unmarked) [I-110]
50 to 100 nM | COc1cc2nn([C@H]3CC[C@H](CN4CC(c5cccc6c5n(C)c(=O)n6C5CCC(=O)NC5=O)C4)CC3)cc2cc1NC(=O)c1cccc(C(F)(F)F)n1 (some centres unmarked) [I-111]
50 to 100 nM | COc1cc2nn([C@H]3CC[C@H](CN4CC(c5cccc6c5n(C)c(=O)n6C5CCC(=O)NC5=O)C4)CC3)cc2cc1NC(=O)c1cccc(C(C)(C)F)n1 (some centres unmarked) [I-112]
50 to 100 nM | Cn1c(=O)n(C2CCC(=O)NC2=O)c2cccc(C3CN(C[C@H]4CC[C@H](n5cc6cc(NC(=O)c7cccc(C(C)(C)F)n7)c(C(F)F)cc6n5)CC4)C3)c21 (some centres unmarked) [I-113]
50 to 100 nM | COc1cc2nn([C@H]3CC[C@H](CN4CCC(c5cccc6c5n(C)c(=O)n6C5CCC(=O)NC5=O)CC4)CC3)cc2cc1NC(=O)c1cccc(C(C)(C)F)n1 (some centres unmarked) [I-114]
< 50 nM | Cn1c(=O)n(C2CCC(=O)NC2=O)c2cccc(OCC3CCN(C[C@H]4CC[C@H](n5cc6cc(NC(=O)c7cccc(C(F)(F)F)n7)c(C(F)F)cc6n5)CC4)CC3)c21 (some centres unmarked) [I-115]
< 50 nM | CN(C[C@H]1CC[C@H](n2cc3cc(NC(=O)c4cnn5cccnc45)c(N4CCOCC4)cc3n2)CC1)C1CCN(Cc2cccc3c2n(C)c(=O)n3C2CCC(=O)NC2=O)CC1 (some centres unmarked) [I-116]
50 to 100 nM | COc1cc2nn([C@H]3CC[C@H](CN(C)C4CCC5(CC4)CC(Cc4cccc6c4n(C)c(=O)n6C4CCC(=O)NC4=O)C5)CC3)cc2cc1NC(=O)c1cccc(C(F)(F)F)n1 (some centres unmarked) [I-117]

Same assay, conditions: OCI-LY10 cells, 24 hrs incubation, read-out: IRAK4 degradation in OCI-LY10 at 24 hrs: DC50

DC50 | SMILES
50 to 100 nM | CC(C)(O)COc1cc2nn([C@H]3CC[C@H](CN4CCC5(CC4)CC(CNc4cccc6c4C(=O)N(C4CCC(=O)NC4=O)C6=O)C5)CC3)cc2cc1NC(=O)c1cccc(C(C)(C)F)n1 (some centres unmarked) [I-118]
50 to 100 nM | CC(C)(O)COc1cc2nn([C@H]3CC[C@H](CN4CCC5(CC4)CC(CCNc4cccc6c4C(=O)N(C4CCC(=O)NC4=O)C6=O)C5)CC3)cc2cc1NC(=O)c1cccc(C(C)(F)F)n1 (some centres unmarked) [I-119]
50 to 100 nM | COc1cc2nn([C@H]3CC[C@H](CN4CCC5(CC4)CC(CCNc4cccc6c4C(=O)C(C4CCC(=O)NC4=O)C6=O)C5)CC3)cc2cc1NC(=O)c1ccnc(C)n1 (some centres unmarked) [I-120]
50 to 100 nM | COc1cc2nn([C@H]3CC[C@H](CN4CCC5(CC4)CC(CCNc4cccc6c4C(=O)N(C4CCC(=O)NC4=O)C6=O)C5)CC3)cc2cc1NC(=O)c1ccc(F)c(C)n1 (some centres unmarked) [I-121]
50 to 100 nM | COc1cc2nn(C3CCC(CN4CC5(CCC(CNc6cccc7c6C(=O)N(C6CCC(=O)NC6=O)C7=O)CC5)C4)CC3)cc2cc1NC(=O)c1cccc(C(C)(F)F)n1 (centres unmarked) [I-122]
50 to 100 nM | CC(C)(O)c1cc2nn([C@H]3CC[C@H](CN4CCC5(CC4)CC(Nc4cccc6c4C(=O)N(C4CCC(=O)NC4=O)C6=O)C5)CC3)cc2cc1NC(=O)c1cccc(S(F)(F)(F)(F)F)c1 (some centres unmarked) [I-123]
< 50 nM | CN(C[C@H]1CC[C@H](n2cc3cc(NC(=O)c4cccc(C(F)(F)F)n4)c(C(C)(C)O)cc3n2)CC1)[C@H]1CC[C@]2(CC1)C[C@H](Nc1cccc3c1C(=O)N(C1CCC(=O)NC1=O)C3=O)C2 (some centres unmarked) [I-124]
50 to 100 nM | COc1cc2nn([C@H]3CC[C@H](CN4CCC5(CC4)CC(CCNc4cccc6c4C(=O)N(C4CCC(=O)NC4=O)C6=O)C5)CC3)cc2cc1NC(=O)c1ccccn1 (some centres unmarked) [I-125]
50 to 100 nM | CN(C[C@H]1CC[C@H](n2cc3cc(NC(=O)c4cccc(C(F)(F)F)n4)c(C(C)(C)O)cc3n2)CC1)[C@H]1CC[C@@]2(CC1)C[C@H](Nc1cccc3c1C(=O)N(C1CCC(=O)NC1=O)C3=O)C2 (some centres unmarked) [I-126]
50 to 100 nM | CC1(C)OC(c2cccc(C(F)(F)F)n2)=Nc2cc3cn([C@H]4CC[C@H](CN5CCC6(CC5)CC(Nc5cccc7c5C(=O)N(C5CCC(=O)NC5=O)C7=O)C6)CC4)nc3cc21 (some centres unmarked) [I-127, 4-[[7-[[4-[8,8-Dimethyl-6-[6-(trifluoromethyl)-2-pyridyl]pyrazolo[3,4-g][3,1]benzoxazin-2-yl]cyclohexyl]methyl]-7-azaspiro[3.5]nonan-2-yl]amino]-2-(2,6-dioxo-3-piperidyl)isoindoline-1,3-dione]
50 to 100 nM | COc1cc2nn([C@H]3CC[C@H](CN4CCC5(CC4)CC(CNc4cccc6c4C(=O)N([C@@H]4CCC(=O)NC4=O)C6=O)C5)CC3)cc2cc1NC(=O)c1cccc(C(F)(F)F)n1 [I-130, N-[2-[4-[[2-[[[2-[(3R)-2,6-dioxo-3-piperidyl]-1,3-dioxo-isoindolin-4-yl]amino]methyl]-7-azaspiro[3.5]nonan-7-yl]methyl]cyclohexyl]-6-methoxy-indazol-5-yl]-6-(trifluoromethyl)pyridine-2-carboxamide]
